Assays:
intestinal membranes = settings: Tagesson et al., Gut 26:369 (1985); cited from earlier work
P388 mouse leukemia = P388 mouse leukemia model, survival time; assay type: in vivo; settings: 1.25 mg/kg intraperitoneally on Study Day-1; female mice inoculated with P388 on Day-0
Protocol: The P388 mouse leukemia model was prepared according to the method described by Daoud and Juliano in Cancer Res. 48: 5518 (1986). Female mice were intraperitoneally inoculated with P388 mouse leukemia (1 million cells/0.1 ml) on Study Day-0. The study drugs were intraperitoneally injected on Study Day-1. […]

| Compound | concentration inducing histopathological damage to intestinal membranes (intestinal membranes) | MEAN SURVIVAL TIME (P388 mouse leukemia) |
| --- | --- | --- |
| sn-1-acyl-3-glycerophosphorylcholine [lyso-PC] | 0.01-1 mM | – |
| CC[C@]1(O)C[C@H]2CN(CCc3c([nH]c4ccccc34)[C@@](C(=O)OC)(c3cc4c(cc3OC)N(C=O)[C@H]3[C@@](O)(C(=O)OC)[C@H](OC(C)=O)[C@]5(CC)C=CCN6CC[C@]43[C@@H]65)C2)C1 [Vincristin, vincristin] | – | 21.2 days |
